Data from ChEMBL document CHEMBL4043153, “Lead selection of antiparasitic compounds from a focused library of benzenesulfonyl derivatives of heterocycles” (Bioorg Med Chem Lett, 2017).

Experiments:
Type in all cases: functional
Leishmania donovani [1] = assay: Antiparasitic activity against Leishmania donovani MHOM-ET-67/L82 axenic amastigotes assessed as growth inhibition at 0.8 ug/ml after 72 hrs by resazurin dye-based fluorometric analysis relative to control; settings: MHOM-ET-67/L82, 72 h, read-out: GI
Leishmania donovani [2] = assay: Antiparasitic activity against Leishmania donovani MHOM-ET-67/L82 axenic amastigotes assessed as growth inhibition at 4.8 ug/ml after 72 hrs by resazurin dye-based fluorometric analysis relative to control; settings: MHOM-ET-67/L82, 72 h, read-out: GI
Trypanosoma cruzi [3] = assay: Antiparasitic activity against Trypanosoma cruzi Tulahuen C4 intracellular amastigotes infected in rat L6 cells assessed as growth inhibition at 0.8 ug/ml after 96 hrs by CPRG/Nonidet reagent based photometric analysis relative to control; settings: Tulahuen C4, L6, 96 h, read-out: GI
Trypanosoma cruzi [4] = assay: Antiparasitic activity against Trypanosoma cruzi Tulahuen C4 intracellular amastigotes infected in rat L6 cells assessed as growth inhibition at 4.8 ug/ml after 96 hrs by CPRG/Nonidet reagent based photometric analysis relative to control; settings: Tulahuen C4, L6, 96 h, read-out: GI
Plasmodium falciparum [5] = assay: (§1) Antiparasitic activity against intraerythrocytic form of chloroquine/pyrimethamine-resistant Plasmodium falciparum K1 infected in human RBC assessed as growth inhibition at 0.8 ug/ml preincubated for 48 hrs followed by [3H]-hypoxanthine addition measured after 24 hrs by liquid scintillation counting analysis relative to control; settings: read-out: GI
Plasmodium falciparum [6] = assay: as §1, with “4.8” for “0.8”; settings: read-out: GI
[7] = system: Trypanosoma brucei rhodesiense; assay: Antiparasitic activity against Trypanosoma brucei rhodesiense STIB 900 trypomastigote bloodstream form assessed as growth inhibition at 0.8 ug/ml after 72 hrs by resazurin dye-based fluorometric analysis relative to control; settings: STIB 900, 72 h, read-out: GI
[8] = system: Trypanosoma brucei rhodesiense; assay: Antiparasitic activity against Trypanosoma brucei rhodesiense STIB 900 trypomastigote bloodstream form assessed as growth inhibition at 4.8 ug/ml after 72 hrs by resazurin dye-based fluorometric analysis relative to control; settings: STIB 900, 72 h, read-out: GI

| SMILES | inhibition of growth at 0.8 µg/mL (Leishmania donovani [1]) [%] | inhibition of growth at 4.8 µg/mL (Leishmania donovani [2]) [%] | inhibition of growth at 0.8 µg/mL (Trypanosoma cruzi [3]) [%] | inhibition of growth at 4.8 µg/mL (Trypanosoma cruzi [4]) [%] | inhibition of growth at 0.8 µg/mL (Plasmodium falciparum [5]) [%] | inhibition of growth at 4.8 µg/mL (Plasmodium falciparum [6]) [%] | inhibition of growth at 0.8 µg/mL [7] [%] | inhibition of growth at 4.8 µg/mL [8] [%] |
| --- | --- | --- | --- | --- | --- | --- | --- | --- |
| O=S(=O)(c1ccc(C(F)(F)F)cc1)N1CCc2ccccc2C1 | 40.8 | 58.3 | 0 | 27.3 | 0.6 | 22.7 | 0.7 | 5.8 |
| CC(C)(C)c1ccc(S(=O)(=O)n2nnc3ccccc32)cc1 | 13.3 | 42.8 | 8.5 | 7.4 | 0 | 0 | 8.8 | 0 |
| CC(=O)c1ccc(S(=O)(=O)n2nnc3ccccc32)cc1 | 17.3 | 41.6 | 0 | 6.1 | 0 | 5.6 | 2.8 | 4.9 |
| CC(=O)c1ccc(S(=O)(=O)n2ccc3ccccc32)cc1 | 0 | 25.9 | 0 | 0 | 12.2 | 40.8 | 2.2 | 0 |
| CC(=O)c1ccc(S(=O)(=O)N2c3ccccc3CCC2C)cc1 (centres undefined) | 6 | 45.7 | 0 | 91.9 | 4 | 29.8 | 0 | 1.5 |
| CC1Cc2ccccc2N1S(=O)(=O)c1ccccc1[N+](=O)[O-] (centres undefined) | 19.3 | 52.4 | 0 | 15.1 | 14.8 | 50.5 | 6.3 | 9.6 |
| CC1Cc2ccccc2N1S(=O)(=O)c1ccc(C(F)(F)F)cc1 (centres undefined) | 17.9 | 86.2 | 0 | 54.6 | 12.7 | 91.4 | 0 | 1.2 |
| O=S(=O)(c1ccc(C(F)(F)F)cc1)n1nnc2ccccc21 | 21.8 | 44.8 | 5.5 | 3 | 0 | 1 | 3.4 | 0.4 |
| O=S(=O)(c1cccc(C(F)(F)F)c1)N1CCCc2ccccc21 | 23.7 | 73.1 | 10.4 | 62.6 | 6.6 | 68 | 2.4 | 2.5 |
| O=[N+]([O-])c1ccccc1S(=O)(=O)n1ccc2ccccc21 | – | – | < 40 | – | – | – | – | – |
| CC1Cc2ccccc2N1S(=O)(=O)c1cccc([N+](=O)[O-])c1 (centres undefined) | 26 | 66.2 | 2.5 | 31.6 | 14.9 | 62.6 | 7 | 12.6 |
| O=S(=O)(c1ccc(F)cc1)N1CCc2ccccc21 | 11 | 62.7 | 0 | 0.2 | 1.5 | 28.2 | 12.6 | 19.2 |
| O=[N+]([O-])c1ccccc1S(=O)(=O)N1CCc2ccccc2C1 | 17.8 | 57 | 3.1 | 27.5 | 0 | 19.8 | 10.8 | 6.9 |
| O=S(=O)(c1ccc(C(F)(F)F)cc1)N1CCCc2ccccc21 | 20.1 | 85 | 0 | 22.6 | 7.2 | 75.3 | 7.2 | 18.1 |
| Cc1ccc(S(=O)(=O)N2c3ccccc3CC2C)cc1 (centres undefined) | 9.4 | 5.3 | 0 | 93.4 | 7.7 | 53.1 | 3.5 | 0 |
| CC(C)(C)c1ccc(S(=O)(=O)N2CCCc3ccccc32)cc1 | 49.8 | 99.1 | 0 | 55.6 | 23.5 | 91.6 | 6.7 | 5.5 |
| O=[N+]([O-])c1cccc(S(=O)(=O)n2ccc3ccccc32)c1 | 11.7 | 59.3 | 0 | 40.5 | 8 | 68.8 | 1.9 | 3.9 |
| COc1ccc(S(=O)(=O)N2CCc3ccccc32)cc1 | 18.6 | 42.6 | 12.1 | 27.4 | 0 | 11.6 | 0 | 0 |
| CC(C)(C)c1ccc(S(=O)(=O)N2CCc3ccccc32)cc1 | 49.4 | 100 | 5.2 | 54.1 | 29.5 | 99.1 | 1.9 | 5.8 |
| CC(C)(C)c1ccc(S(=O)(=O)n2ccc3ccccc32)cc1 | 27.3 | 92.2 | 0 | 0 | 13.9 | 92.3 | 0 | 0 |
| Cc1ccc(S(=O)(=O)N2CCc3ccccc32)cc1 | 8.1 | 63.7 | 0 | 14.4 | 0 | 20 | 3.1 | 0 |
| CC(=O)c1ccc(S(=O)(=O)N2CCc3ccccc3C2)cc1 | 20.1 | 46.1 | 0 | 13.4 | 0.3 | 9.7 | 0 | 0 |
| Cc1cc(C)c(C)c(S(=O)(=O)n2nnc3ccccc32)c1C | 28.4 | 45.6 | 0 | 2.9 | 0 | 0.1 | 0.7 | 4.7 |
| CC1Cc2ccccc2N1S(=O)(=O)c1cccc(C(F)(F)F)c1 (centres undefined) | 13.5 | 77.6 | 0 | 5.7 | 15.1 | 77.1 | 0 | 0 |
| C[C@@H]1CC[C@H]2[C@@H](C)C(=O)O[C@@H]3O[C@@]4(C)CC[C@@H]1[C@]32OO4 [ARTEMISININ] | – | – | – | – | 80 | 100 | – | – |
| CC(=O)Nc1ccc(S(=O)(=O)N2c3ccccc3CC2C)cc1 (centres undefined) | 6.4 | 14.7 | 0 | 46.7 | 4.2 | 15.6 | 0 | 1.7 |
| Nc1nc(N)nc(Nc2ccc([As]3SCC(CO)S3)cc2)n1 (centres undefined) [MELARSOPROL] | – | – | – | – | – | – | 44.4 | 98.3 |
| O=C(Cn1ccnc1[N+](=O)[O-])NCc1ccccc1 [BENZNIDAZOLE] | – | – | 63.3 | 98.5 | – | – | – | – |
